The text below walks through data of paper PMC8958504 (Journal of Medicinal Chemistry, 2022).

Data set [1] concerns mouse hippocampal slices. The following applies: 1 μM, OA 1 μM, 6 h. The method, then:
Once the treatment was ended, the cell viability was measured by the MTT method, cell death with the fluorescent probe PI (1 μg/mL), and ROS production with the fluorescent probe H2DCFDA (10 μL/mL).
Fluorescence from whole slices was measured as the mean intensity with an inverted Nikon eclipse T2000-U microscope (Nikon Instruments). […] The results were normalized to the basal condition, which was considered as 100%. Image analysis was performed using Fiji software.

Data set [2] deals with NRF2-ARE signaling pathway. Kind of data set: cells. It counts as cell-based. The following applies: concentration required to double luciferase activity, AREc32 cells, 24 h.
Data set [3] relates to human neuroblastoma SH-SY5Y cell line. Description: Cell viability per se in SH-SY5Y cells (MTT). The following applies: 100 μM, 24 h.
Description: The cells from the 3rd to 12th passage were seeded at a density of 80,000 cells/well in 96-well plates and were used to assess the properties of our compounds.
After treatment, the SH-SY5Y cells, rat primary neuronal cultures, and hippocampal slices were incubated for 90 min with tetrazolium salt MTT (0.5 mg/mL) solution. This assay is based on the reduction of MTT (yellow salt) to purple insoluble formazan crystals by oxidoreductase enzymes from living cells. Thereafter, in order to solubilize the formazan crystal, the cells/slices were incubated for another 45 min in dimethyl sulfoxide (DMSO). […] The basal absorbance was set to 100%, and the results were normalized to basal conditions.
The target in data set [4] is T1, hMAO-B (Homo sapiens, UniProt P27338).
T1 sequence (P27338 1-520): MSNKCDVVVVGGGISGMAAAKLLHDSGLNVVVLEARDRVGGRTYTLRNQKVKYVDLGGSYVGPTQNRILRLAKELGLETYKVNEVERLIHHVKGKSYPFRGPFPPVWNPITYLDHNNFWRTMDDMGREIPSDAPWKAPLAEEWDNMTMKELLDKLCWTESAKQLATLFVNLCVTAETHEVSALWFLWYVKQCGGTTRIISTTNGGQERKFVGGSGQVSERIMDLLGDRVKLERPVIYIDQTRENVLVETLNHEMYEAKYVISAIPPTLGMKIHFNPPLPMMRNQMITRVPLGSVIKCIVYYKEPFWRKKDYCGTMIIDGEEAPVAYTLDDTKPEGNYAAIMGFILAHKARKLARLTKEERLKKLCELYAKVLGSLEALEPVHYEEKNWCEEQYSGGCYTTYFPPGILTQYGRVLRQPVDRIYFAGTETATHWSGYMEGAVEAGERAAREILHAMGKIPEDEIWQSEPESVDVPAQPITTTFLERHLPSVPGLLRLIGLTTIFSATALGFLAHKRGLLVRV
Kind of data set: biochemical. The following applies: read-out: hMAO-B (IC50); recombinant hMAO-B, p-tyramine substrate. The method, then: (§1) The hMAO-A/B inhibition of all compounds was determined using the Amplex Red MAO assay kit.
(§2) Assays were performed following the general procedure previously described.[98] […] The specific fluorescence emission was calculated after subtracting the background activity, which was determined from wells containing all components except the hMAO isoforms, which were replaced with PBS.

Data set [5] concerns the target T2, QR2 (Mesocricetus auratus, UniProt A0ABM2YAB8).
T2 sequence (A0ABM2YAB8 1-231): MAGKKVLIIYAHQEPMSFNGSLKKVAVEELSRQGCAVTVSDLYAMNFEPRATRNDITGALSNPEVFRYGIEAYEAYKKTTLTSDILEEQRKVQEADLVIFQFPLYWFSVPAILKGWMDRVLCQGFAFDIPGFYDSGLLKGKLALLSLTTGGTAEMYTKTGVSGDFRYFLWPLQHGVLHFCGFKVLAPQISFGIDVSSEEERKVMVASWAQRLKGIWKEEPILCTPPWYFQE
Description: biochemical. The method, then: The QR2 experiments were performed in membrane homogenates of hamster brains (https://www.eurofins.fr, catalog ref. 0088). […] First, radioligand displacement was measured at a fixed compound concentration (10 μM) in each receptor.

In data set [6] the target is T3, hMT2R (Homo sapiens, UniProt P49286).
T3 construct: host or cells: Chinese hamster ovary cells
T3 sequence (P49286 1-362): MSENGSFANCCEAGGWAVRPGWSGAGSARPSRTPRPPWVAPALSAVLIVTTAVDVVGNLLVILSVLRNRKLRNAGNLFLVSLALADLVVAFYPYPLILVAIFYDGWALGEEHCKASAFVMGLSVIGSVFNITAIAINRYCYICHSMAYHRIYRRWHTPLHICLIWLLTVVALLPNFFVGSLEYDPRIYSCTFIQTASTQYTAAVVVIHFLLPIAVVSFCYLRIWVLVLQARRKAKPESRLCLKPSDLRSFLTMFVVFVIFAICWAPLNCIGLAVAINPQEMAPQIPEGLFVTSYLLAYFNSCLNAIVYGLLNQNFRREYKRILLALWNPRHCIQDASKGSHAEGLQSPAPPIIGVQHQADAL
Description: hMT2R radioligand displacement in transfected CHO cells. The following applies: read-out: hMT2R binding affinity (Ki). The method, then:
Assays in MT1R and MT2R were carried out using human receptors that were stably transfected in Chinese hamster ovary cells (https://www.eurofins.fr, catalog refs. 1538 and 1687). The QR2 experiments were performed in membrane homogenates of hamster brains (https://www.eurofins.fr, catalog ref. 0088). […] First, radioligand displacement was measured at a fixed compound concentration (10 μM) in each receptor. […] (E)-Resveratrol and melatonin were tested for comparative purposes.
In general terms: Loss of bound radioactivity is the signal in a displacement assay; it reports binding, not function.

Data set [7] can be described thus: in vitro. It counts as in vitro ADME.
Data set [8] can be described thus: Oxygen radical absorbance capacity (ORAC-FL) assay. The following applies: trolox = 1.0.
Data set [9] concerns the target T4, hMAO-A (Homo sapiens, UniProt P21397).
T4 sequence (P21397 1-527): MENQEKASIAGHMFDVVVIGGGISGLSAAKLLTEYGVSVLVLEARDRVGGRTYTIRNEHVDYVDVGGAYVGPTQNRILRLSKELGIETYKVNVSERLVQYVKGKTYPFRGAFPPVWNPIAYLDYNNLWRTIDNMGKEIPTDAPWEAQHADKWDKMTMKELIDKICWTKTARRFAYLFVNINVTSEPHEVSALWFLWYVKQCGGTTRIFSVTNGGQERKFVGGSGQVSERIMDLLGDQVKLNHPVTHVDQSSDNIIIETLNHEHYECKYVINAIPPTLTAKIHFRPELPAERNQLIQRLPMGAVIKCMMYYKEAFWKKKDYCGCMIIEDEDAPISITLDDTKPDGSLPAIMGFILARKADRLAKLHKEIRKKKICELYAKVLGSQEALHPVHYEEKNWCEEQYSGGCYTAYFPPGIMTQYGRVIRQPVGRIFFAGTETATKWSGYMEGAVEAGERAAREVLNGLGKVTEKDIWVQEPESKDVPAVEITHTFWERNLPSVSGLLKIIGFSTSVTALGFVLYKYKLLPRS
Description: biochemical. The following applies: read-out: hMAO-A (IC50); recombinant hMAO-A, p-tyramine substrate. The method, then: as §1, §2

The term IC50 denotes the concentration at which inhibition is half-maximal. Regarding `Oc1ccc(/C=C/c2cc(O)cc(O)c2)cc1` [(E)-resveratrol, reference compound], the “cell viability (MTT)” value in data set [1] is listed as “significantly increased the cell viability to almost basal levels, in a similar way to resveratrol treatment”. Moreover, the “NRF2 (CD, μM)” value in [2] turned out to be 21.0 ± 2.0 µM. Besides, in data set [3], the “reduction of cell viability” value is “over 50%”. Further, the IC50 in [4] came to 29.9 ± 1.8 µM.
As a reminder, the inhibition is the relative decrease from the control value, in per cent. Broadly, the Ki is a measure of affinity in units of concentration, obtained from inhibition or displacement. In the case of `C#CCNC(=O)/C=C/c1cccc(OC)c1` [6d, (2E)-3-(3-Methoxyphenyl)-N-(prop-2-yn-1-yl)prop-2-enamide], the results for the half-maximal inhibitory concentration (IC50) in data set [5], in data set [4] and in data set [9] were approximately 10 µM, more than 50 µM and more than 50 µM, respectively. Besides, the inhibition at 10 µM in data set [5] (read-out: QR2 percentage of inhibition (in brackets)) was found to be 76%. In [6], the Ki amounted to 1.4 µM. The Papp at 240 min, 100 μg mL^–1 in data set [7] (PAMPA, pH 7.4, class from PAMPA-BBB Pe, read-out: CNS-permeability prediction) was more than 4 ×10⁻⁶ cm/s. Also, in data set [7] (porcine brain lipid, PBS/EtOH (70:30), 240 min, 25 °C), the “PAMPA-BBB (Pe, 10^–6 cm s^–1)” value is 4.1 ± 0.2 10^–6 cm s^–1. In addition, in data set [8], the “ORAC (trolox equiv)” value is reported as less than 0.1 trolox equiv.
